Experimental data as given in the supplement of paper PMC10307832.

Tests used:
Assay in all cases: relative viability (nuclei count vs DMSO), 5 days (fraction); higher = more cells survive
Alisertib + Trametinib = compound: COc1cc(Nc2ncc3c(n2)-c2ccc(Cl)cc2C(c2c(F)cccc2OC)=NC3)ccc1C(=O)O [Alisertib] + CC(=O)Nc1cccc(-n2c(=O)n(C3CC3)c(=O)c3c(Nc4ccc(I)cc4F)n(C)c(=O)c(C)c32)c1 [Trametinib] (partner 0.02 µM)
How it was run: (§1)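 Relative viability divides the nuclei count in treated wells by that in vehicle wells. Lung cancer cell lines were seeded in 1536-well plates, dosed by pin tool the next day, and fixed and stained after 5 days in one step with final 0.05% Triton X-100, 1% formaldehyde and 1 ug/ml Hoechst. Dosing was a single drug or a fixed anchor-drug dose plus five library-drug doses (not always all listed) in √10 steps, and values are medians of duplicate plates imaged at 4×.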

Alisertib + Navitoclax = compound: COc1cc(Nc2ncc3c(n2)-c2ccc(Cl)cc2C(c2c(F)cccc2OC)=NC3)ccc1C(=O)O [Alisertib] + CC1(C)CCC(c2ccc(Cl)cc2)=C(CN2CCN(c3ccc(C(=O)NS(=O)(=O)c4ccc(N[C@H](CCN5CCOCC5)CSc5ccccc5)c(S(=O)(=O)C(F)(F)F)c4)cc3)CC2)C1 [Navitoclax] (partner 0.5 µM)
How it was run: as §1

Alisertib + Phenformin = compound: COc1cc(Nc2ncc3c(n2)-c2ccc(Cl)cc2C(c2c(F)cccc2OC)=NC3)ccc1C(=O)O [Alisertib] + N=C(N)NC(=N)NCCc1ccccc1 [Phenformin] (partner 250 µM)
How it was run: as §1

Alisertib + Pemetrexed = compound: COc1cc(Nc2ncc3c(n2)-c2ccc(Cl)cc2C(c2c(F)cccc2OC)=NC3)ccc1C(=O)O [Alisertib] + Nc1nc2[nH]cc(CCc3ccc(C(=O)N[C@@H](CCC(=O)O)C(=O)O)cc3)c2c(=O)[nH]1 [Pemetrexed] (partner 0.2 µM)
How it was run: as §1

Cell Line	relative viability (Alisertib + Trametinib; first compound 0.005 µM)	relative viability (Alisertib + Trametinib; first compound 0.01581 µM)	relative viability (Alisertib + Trametinib; first compound 0.05 µM)	relative viability (Alisertib + Trametinib; first compound 0.1581 µM)	relative viability (Alisertib + Trametinib; first compound 0.5 µM)	relative viability (Alisertib + Navitoclax; first compound 0.005 µM)	relative viability (Alisertib + Navitoclax; first compound 0.01581 µM)	relative viability (Alisertib + Navitoclax; first compound 0.05 µM)	relative viability (Alisertib + Navitoclax; first compound 0.1581 µM)	relative viability (Alisertib + Navitoclax; first compound 0.5 µM)	relative viability (Alisertib + Phenformin; first compound 0.005 µM)	relative viability (Alisertib + Phenformin; first compound 0.01581 µM)	relative viability (Alisertib + Phenformin; first compound 0.05 µM)	relative viability (Alisertib + Phenformin; first compound 0.1581 µM)	relative viability (Alisertib + Phenformin; first compound 0.5 µM)	relative viability (Alisertib + Pemetrexed; first compound 0.005 µM)	relative viability (Alisertib + Pemetrexed; first compound 0.01581 µM)	relative viability (Alisertib + Pemetrexed; first compound 0.05 µM)	relative viability (Alisertib + Pemetrexed; first compound 0.1581 µM)	relative viability (Alisertib + Pemetrexed; first compound 0.5 µM)
NCI-H441	0.378	0.341	0.16	0.168	0.141	0.925	0.365	0.106	0.158	0.132	0.755	0.444	0.2	0.255	0.249	0.288	0.279	0.249	0.145	0.142
NCI-H1793	0.373	0.285	0.192	0.207	0.188	0.428	0.339	0.247	0.17	0.148	0.312	0.233	0.291	0.191	0.148	0.551	0.339	0.356	0.232	0.209
NCI-H23	0.318	0.222	0.199	0.169	0.148	0.677	0.562	0.334	0.175	0.143	0.666	0.512	0.518	0.233	0.163	0.489	0.346	0.271	0.213	0.212
HARA	0.722	0.769	0.348	0.12	0.207	1.15	1.14	0.544	0.281	0.0564	0.398	0.469	0.358	0.187	0.133	0.262	0.211	0.26	0.21	0.125
NCI-H1792	0.413	0.43	0.291	0.0949	0.072	0.608	0.6	0.494	0.096	0.0626	0.299	0.253	0.107	0.13	0.0705	0.674	0.346	0.203	0.0756	0.0468
NCI-H1703	–	–	–	–	–	1.2	0.837	0.317	0.156	0.126	–	–	–	–	–	–	–	–	–	–
NCI-H2342	0.758	0.809	0.483	0.481	0.443	–	–	–	–	–	0.552	0.551	0.581	0.41	0.362	0.774	0.75	0.57	0.542	0.418
CAL-12T	0.321	0.261	0.155	0.154	0.227	1.15	0.568	0.208	0.141	0.165	0.434	0.253	0.15	0.142	0.169	1.14	1.15	0.242	0.235	0.176
NCI-H838	0.432	0.49	0.269	0.146	0.129	1.12	1.1	0.667	0.306	0.169	0.444	0.446	0.276	0.183	0.144	0.222	0.233	0.198	0.2	0.17
NCI-H2085	0.505	0.496	0.264	0.183	0.246	1.15	1.03	0.401	0.278	0.247	0.597	0.651	0.42	0.259	0.327	0.638	0.896	0.837	0.27	0.294
NCI-H1395	1.04	0.922	0.85	0.481	0.38	1.12	1.12	0.935	0.459	0.471	0.427	0.413	0.44	0.358	0.329	0.725	0.766	0.574	0.413	0.353
NCI-H1648	–	0.42	0.27	0.229	0.25	–	–	–	–	–	–	–	–	–	–	–	0.658	0.752	0.27	0.276
NCI-H460	0.102	0.147	0.0441	0.0212	0.0263	1.13	0.815	0.471	0.0264	0.0172	0.474	0.343	0.0695	0.0235	0.0304	0.0584	0.0653	0.0683	0.0474	0.0488
A549	–	–	–	–	–	1.1	0.642	0.215	0.0692	0.0461	0.152	0.0871	0.0611	0.0311	0.0352	–	–	–	–	–
IA-LM	–	–	–	–	–	0.654	0.59	0.313	0.164	0.0604	–	–	–	–	–	–	–	–	–	–
EKVX	0.319	0.37	0.18	0.16	0.155	0.924	0.837	0.589	0.162	0.15	0.209	0.209	0.135	0.129	0.131	0.364	0.377	0.266	0.172	0.187
ChaGo-K-1	0.772	0.795	0.213	0.191	0.159	1.01	0.8	0.313	0.286	0.239	0.426	0.382	0.418	0.151	0.139	0.238	0.281	0.238	0.189	0.169

Cell Line	relative viability (Alisertib + Trametinib; first compound 0.005 µM)	relative viability (Alisertib + Trametinib; first compound 0.01581 µM)	relative viability (Alisertib + Trametinib; first compound 0.05 µM)	relative viability (Alisertib + Trametinib; first compound 0.1581 µM)	relative viability (Alisertib + Trametinib; first compound 0.5 µM)	relative viability (Alisertib + Navitoclax; first compound 0.005 µM)	relative viability (Alisertib + Navitoclax; first compound 0.01581 µM)	relative viability (Alisertib + Navitoclax; first compound 0.05 µM)	relative viability (Alisertib + Navitoclax; first compound 0.1581 µM)	relative viability (Alisertib + Navitoclax; first compound 0.5 µM)	relative viability (Alisertib + Phenformin; first compound 0.005 µM)	relative viability (Alisertib + Phenformin; first compound 0.01581 µM)	relative viability (Alisertib + Phenformin; first compound 0.05 µM)	relative viability (Alisertib + Phenformin; first compound 0.1581 µM)	relative viability (Alisertib + Phenformin; first compound 0.5 µM)	relative viability (Alisertib + Pemetrexed; first compound 0.005 µM)	relative viability (Alisertib + Pemetrexed; first compound 0.01581 µM)	relative viability (Alisertib + Pemetrexed; first compound 0.05 µM)	relative viability (Alisertib + Pemetrexed; first compound 0.1581 µM)	relative viability (Alisertib + Pemetrexed; first compound 0.5 µM)
NCI-H1755	0.742	0.712	0.474	0.426	0.305	0.928	0.99	0.682	0.356	0.181	0.558	0.498	0.517	0.397	0.262	0.443	0.399	0.386	0.321	0.34
NCI-H2228	0.565	0.24	0.237	0.121	0.113	0.829	0.672	0.564	0.0729	0.0587	0.277	0.287	0.17	0.0908	0.0966	0.344	0.336	0.26	0.121	0.0987
NCI-H2087	0.243	0.221	0.149	0.134	0.0971	0.868	0.742	0.164	0.153	0.153	0.423	0.372	0.13	0.12	0.105	0.641	0.632	0.423	0.163	0.144
LU99A	0.507	0.473	0.181	0.212	0.195	0.846	0.634	0.206	0.211	0.123	0.755	0.798	0.658	0.3	0.239	0.205	0.193	0.185	0.161	0.145
NCI-H1355	0.39	0.411	0.355	0.187	0.153	0.884	0.923	0.633	0.205	0.16	0.4	0.353	0.23	0.182	0.189	0.904	0.875	0.65	0.27	0.197
NCI-H520	0.499	0.429	0.35	0.232	0.213	1.19	0.66	0.386	0.272	0.251	0.552	0.395	0.275	0.318	0.2	0.653	0.491	0.346	0.273	0.253
NCI-H727	0.308	0.392	0.355	0.341	0.353	0.389	0.477	0.183	0.166	0.152	0.514	0.504	0.262	0.276	0.352	–	–	–	–	–
NCI-H661	0.514	0.547	0.442	0.341	0.338	–	–	–	–	–	0.267	0.288	0.271	0.246	0.29	0.868	0.858	0.636	0.46	0.324
NCI-H650	0.829	0.684	0.44	0.229	0.208	–	–	–	–	–	0.404	0.377	0.258	0.202	0.168	0.739	0.825	0.35	0.262	0.2
201T	0.732	0.707	0.707	0.679	0.278	1.25	1.19	1.21	1.07	0.425	0.38	0.435	0.441	0.238	0.256	0.314	0.299	0.358	0.335	0.274
LCLC-103H	0.669	0.69	0.345	0.359	0.437	–	–	–	–	–	0.305	0.304	0.316	0.175	0.187	0.497	0.511	0.417	0.399	0.347
ABC-1	–	–	–	–	–	–	–	–	–	–	0.269	0.225	0.185	0.218	0.195	–	–	–	–	–
NCI-H358	0.123	0.138	0.0961	0.0877	0.0818	–	–	–	–	–	0.259	0.262	0.118	0.0826	0.0797	0.162	0.165	0.167	0.112	0.0889
NCI-H1563	–	–	–	–	–	–	–	–	–	–	0.664	0.643	0.674	0.724	0.539	0.806	0.807	0.683	0.543	0.663
EBC-1	–	–	–	–	–	0.298	0.278	0.131	0.17	0.167	–	–	–	–	–	–	–	–	–	–
Calu-6	–	–	–	–	–	0.713	0.377	0.13	0.0974	0.107	–	–	–	–	–	–	–	–	–	–
